Values of other authors, collected in patent US6605304B1, “Silicate-containing powders providing controlled, sustained gas release” (Bernard Technologies, Inc., priority 1998, dated 2003).

Columns and labels:
[1] = system: mold spores, bacteria and other microbiological contaminants

Compound	mutagenic potential (mice; mouse, in vivo, po)	chromosomal aberrations or micronuclei in the bone marrow (mice; mice, subchronic and acute oral administration)	concentration that penetrates and destroys contaminants [1]
OCl [hypochlorite]	weak positive effect	–	–
[O][Cl+][O-] [chlorine dioxide]	–	failed to induce any chromosomal aberrations or increased numbers of micronuclei	below one
